In PubChem BioAssay (NCI) one finds GI50 and TGI data, which are given here for one compound.

Among the test systems are A498 renal; CAKI-1 renal; LOX IMVI melanoma; SNB-19 CNS; OVCAR-3 ovarian; NCI-H23 lung; M14 melanoma; MOLT-4 leukemia; NCI/ADR-RES ovarian; MALME-3M melanoma.
Common to all, as to experiment: inhibition of tumour cell growth, NCI panel, 48 h

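Step 1: Grow cells in 96-well plates. Step 2: Expose to compound for 48 hours at 5 concentrations. Step 3: Interpolate endpoints linearly; if unreached, use highest concentration. The concentration for 50% growth inhibition is given as GI50. TGI marks complete inhibition of growth.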 Where only a bound is given, the exact number is not on record here.

For the compound `C=CCN(CC=C)C(=O)c1cc(C)nc2c1c(=O)n(-c1ccccc1)c(=O)n2CC(O)CN1CCN(c2ncccn2)CC1` (stereo not given), the GI50 in the assay with A498 renal, in the assay with CAKI-1 renal, with LOX IMVI melanoma, in the assay with SNB-19 CNS, in the assay with OVCAR-3 ovarian and in the assay with NCI-H23 lung was more than 100 µM throughout. The GI50 with M14 melanoma, in the assay on MOLT-4 leukemia, with NCI/ADR-RES ovarian and with MALME-3M melanoma was more than 100 µM throughout. The TGI in the assay on A498 renal, in the assay with CAKI-1 renal, with LOX IMVI melanoma, in the assay with SNB-19 CNS, in the assay with OVCAR-3 ovarian and with NCI-H23 lung was more than 100 µM in each case. In addition, the TGI in the assay on M14 melanoma, in the assay with MOLT-4 leukemia, with NCI/ADR-RES ovarian and with MALME-3M melanoma was more than 100 µM throughout.
